Measurements: patent US9877966B1, “Combination therapy for the inhibition of metastasis and tumorigenesis” (priority 2015, dated 2018)

Key:
Assay type in all cases: cell-based, human
PC3M cells = test: Soft agar colony formation assay (anchorage independent growth)
Protocol: Compound 2 was tested for its ability to affect anchorage independent growth in a soft agar assay, a stringent method to detect malignant transformation of cells in vitro.

[1] = tested on: PC3M reporter cell line stably expressing PTB-GFP (ATP levels); test: ATP quantitation assay (ATPLite); details: Table 4, PC3M cells, 24 hrs
Protocol: This follow-up assay was conducted to measure the effect of compounds on cell health by measuring ATP levels (ATPLite™). ATPLite™ is an ATP monitoring system based on firefly (Photinus pyralis) luciferase. The level of ATP in a metabolically active cell is a general marker for its viability. ATP levels are often reduced during necrosis or apoptosis. In this assay, the luciferase enzyme catalyzes the conversion of the added substrate D-luciferin to oxyluciferin and light with ATP. Thus, the emitted light is proportional to the ATP concentration. For this assay, the highly metastatic PC3M reporter cell line stably expressing the PTB-GFP was provided by Professor Sui Huang of Northwestern University. The media and cell culture reagents were purchased from Invitrogen (Carlsbad, Calif.), ATPLite™ came from PerkinElmer.

[2] = tested on: PNC prevalence in PC3M cell line stably expressing GFP-PTB; test: High content assay for PNC detection (reduction of PNC prevalence); details: Table 4; PC3M GFP-PTB cells, 16 hrs
Text: The quantitative output for this assay is the reduction of PNC prevalence. The PNC can be detected in living cells by the expression of a green fluorescent protein (GFP) tagged to the PNC localized protein, PTB. A PC3M cell line was used that stably expresses GFP-PTB to mark PNCs. This method eliminates the need for immunofluorescent staining.
The IN Cell Analyzer 1000 automated fluorescent imaging system (GE Healthcare, Piscataway, N.J.) was used for automated image acquisition. […] The instrument acquired images of each well in a 1536-well plate with a laser-based autofocus system. To score PNC prevalence in a high-content throughput, the Multi-Target Analysis (MTA) algorithm (GE Healthcare, Investigator v3.5) to identify individual cells and granules (PNCs) within these cells was used. The nucleus was segmented via a region growing method (50 μm^2 minimum area) with light shading and noise removal to allow “touching” nuclei to be separated. […] For this particular assay, PNC-positive cells were scored when 1 to 3 PNC granules were detected per nucleus. Cells that contained 0 granules were scored as PNC negative, and cells with >3 granules were assumed to be false positives (very few cells have more than 3 PNCs in one focus plane), and were also scored as PNC negative.

Row | Structure (SMILES) | cell viability (PC3M cells; soft agar assay, 3.8, 18.6 nM) | number of colonies (anchorage independent growth) (PC3M cells; soft agar, after 14 days, 3.8, 18.6 nM) | ATP IC50 [1] | PNC IC50 [2]
1 | N=c1c2c(-c3ccccc3)c(-c3ccccc3)n(Cc3ccccc3)c2ncn1[C@H]1CC[C@H](O)CC1 [Compound 2, trans-4-(7-Benzyl-4-imino-5,6-diphenyl-4,7-dihydro-3H-pyrrolo[2,3-d]pyrimidin-3-yl)cyclohexanol] | no impact on cell viability | dose dependent reduction in the number of colonies | – | –
2 | COC(=O)C[C@H](C(=O)OC)n1ncc2c(c(-c3ccccc3)cn2Cc2ccc(Br)cc2)c1=N [Compound 114] | – | – | inactive | inactive
